Experimental data as given in US6281250A, “Retinyl ethers, derivatives and analogues and inhibition of breast carcinogenesis” (Southern Research Institute, priority 1999, dated 2001).
“And” between values parts separate entries of the source, which are not always exact repeats. Equal entries are not always repeated. “Also recorded” adds a separate entry of the source. Where two headings read alike, the source gives them in different places. Blank lines part the entries; values can stand above or below the molecule they belong to.

What was measured:
[1] = target: T1, cellular retinol-binding protein (CRBP) (Rattus norvegicus, UniProt P02696); assay: Binding to cellular retinol-binding protein (CRBP): inhibition of [3H]retinol binding, sucrose density-gradient sedimentation; conditions: for Percent Inhibition of [3H] Retinol Binding (CRBP Assay): 150-fold molar excess of unlabelled test retinoid, rat testes cytosol
T1 construct: portions of rat testes cytosol (1 mg protein) were incubated; from tissue; host or cells: rat testes cytosol
T1 sequence (P02696 1-135): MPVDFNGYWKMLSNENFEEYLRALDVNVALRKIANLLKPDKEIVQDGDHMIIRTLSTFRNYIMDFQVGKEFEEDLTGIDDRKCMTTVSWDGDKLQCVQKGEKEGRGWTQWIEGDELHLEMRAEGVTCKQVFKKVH
Description: Binding affinities of the retinyl ethers for CRBP were determined by sucrose, density-gradient, sedimentation analysis as described before (Sani et al., 1980). Briefly, portions of rat testes cytosol (1 mg protein) were incubated with [^3 H]retinol (50 pmol) in the presence or absence of a 150-fold molar excess of unlabeled retinol or the test retinoids. The preparations after dialysis were analyzed by 5-20% sucrose density gradient sedimentation. For measuring the competitive binding of the unlabeled retinoids, inhibition of [^3 H]retinol binding to CRBP by unlabeled retinol is regarded as 100%. The mean and standard deviation calculated from the relative inhibitions obtained from multiple determinations were used as the relative binding affinities of the various retinyl ethers.
The group of retinyl benzyl ethers has now been evaluated for binding to CRBP. Binding to CRBP, as defined for Table I, at approximately 60% or higher was rated as strong; at 40-60%, as moderate; at 20-40%, as low.
^a Per cent inhibition of binding of tritiated retinol to CRBP by a
150-fold molar excess of the unlabelled test retinoid (Sani et al., 1980,

mouse-skin papillomas = assay: Suppression of DMBA-initiated and TPA-promoted mouse-skin papillomas; format: in vivo; conditions: mouse-skin papilloma assay
Excerpt: (§1) Earlier, several alkyl, alkenyl, or alkynyl retinyl ethers had been assayed for inhibition of TPA-induced ornithine decarboxylase (ODC) in mouse skin and for the suppression of DMBA-initiated and TPA-promoted mouse-skin papillomas (Shealy et al., 1997). In comparison with control groups, these retinyl ethers were ineffective. Only a few representatives of the benzyl ethers were selected for tests in these assays. […] Because of these and the earlier results (Shealy et al., 1997), testing of retinyl benzyl ethers in the ODC and papilloma assays was discontinued.

[2] = system: TPA-induced ornithine decarboxylase (ODC); assay: Inhibition of TPA-induced ornithine decarboxylase (ODC) in mouse skin; format: in vivo
Excerpt: as §1

[3] = Stability of retinyl ethers in storage and in solution; format: physicochemical; conditions: weakly acidic ethanol solution
[4] = system: MNU-induced mammary cancer; assay: Short-term (90-day) assay against MNU-induced mammary cancer in rats (Expts. 2 and 3); format: in vivo, rat (female Sprague-Dawley)
Description: Retinoid diet mixtures were stored at 4° C. […] The animals were palpated for mammary tumors 2×/week. […] Also, five rats/group had complete necropsies performed.
The 2,5-dimethoxybenzyl (3b) and 4-methoxybenzyl (3e) ethers were tested in the same way in a 90-day study. […] The 2,5-dimethybenzyl (3c) and the 2,3-dimethoxybenzyl (3h) ethers, together with RTMBE for comparison, were likewise assayed according to the same methodology. Prior to the beginning of this study, specimens of the retinoid-diet mixtures were placed under the conditions that were employed during the storage and feeding of RTMBE, 3c, and 3h. The specimens were extracted with butanol, and the extracts were analyzed by HPLC. […] Testing of 3c and 3h was discontinued, but the RTMBE study was continued until the duration of the study was 180 days (Table 6). The results were similar to those of Experiment 1 (Table 3). The averages of the number of tumors per rat were reduced by 32-35%; in addition, the averages of the tumor weights per rat was 56-70% lower than the average tumor burden of the control group.
and was continued until the studies of 3b, 3c, 3e, and 3h were terminated
90 days after administration of MNU. The RTMBE experiment was continued
until 180 days after MNU administration (Table VI).
kilogram of Teklad diet.

[5] = Mammary tissue-to-plasma concentration after intravenous dosing; format: in vivo, rat (female Sprague-Dawley); conditions: rat, 5 mg/kg i.v., after 24 hr, read-out: ratio of mammary tissue-to-plasma concentrations
[6] = target: T1, cellular retinol-binding protein (CRBP); conditions: Sani, 1993; Sani et al., 1996; Shealy et al., 1997; cited from earlier work
[7] = Shealy et al., 1997, cited from earlier work; for toxicity in mammary carcinogenesis study: 2 mmol/kg of diet; for toxic dose in the feed after 90 days: Sprague-Dawley rats
[8] = system: serum retinol-binding protein (RBP); conditions: 150-fold molar excess; Sani et al., 1996; cited from earlier work
[9] = system: carcinogen-induced mammary cancer; conditions: cited from earlier work; for suppression of MNU-induced mammary cancer: Thompson et al., 1978 / Shealy et al.
[10] = cited from earlier work; for stability in refluxing ethanol: 24 hours or similar, protected from light and air, Shealy et al, 1997
[11] = Toxicity of retinyl ethers in mice by gavage during 28-29 days
Description: Toxicological evaluations involving measurement of body weights and observations of clinical signs characteristic of retinoid toxicity were accomplished as previously described (Lin et al., 1996).
RTMBE and two of its analogues, together with RME and RPE, were selected for estimation of their toxicities to mice when administered during 28-29 days by gavage in corn oil (Table 8). Mice were evaluated for changes in body weight and for signs of clinical retinoid toxicity (hypervitaminosis A) including alopecia, scaly skin, and limping. In the first experiment, these retinyl ethers were given at equimicromolar doses at three dose levels. The retinyl benzyl ethers (RTMBE, 3c, and 3e) were then tested at higher doses in a second experiment.

[12] = rat, in feed; Shealy et al., 1997; cited from earlier work
[13] = system: NADPH-requiring enzymes in rat liver microsomes; conditions: literature; cited from earlier work
[14] = system: serum retinol-binding protein (RBP); assay: Binding to serum retinol-binding protein (RBP): inhibition of [3H]retinol binding; conditions: % of that of retinol
[15] = system: MNU-induced mammary tumors
Description: The methods employed in the preparation of diets, analyses of retinoid-dietspecimens, and dietary treatment with retinoids of MNU-induced mammary carcinogenesis in Sprague-Dawley rats were described previously (Grubbs et al., 1995; Shealy et al., 1997). Briefly, diets were prepared by mixing each retinoid with Wayne meal or Teklad (4%) mash diet. For each kg of diet, the retinoid was dissolved in 12 g ethanol, 19 g trioctanoin, 0.05 mL Tenox 20, and 0.05 mL d,1-alpha tocopherol prior to incorporation into the feed using a Patterson-Kelly blender. Retinoid diet mixtures were stored at 4° C. Portions of each retinoid-diet mixture were analyzed for the added retinoid to ensure homogeneity. Female Sprague-Dawley rats received an i.v. injection of MNU (45 mg/kg body weight) at 50 days of age. Diet supplementation with retinoids was initiated three days after MNU. A group of rats receiving retinyl acetate (1 mmol/kg of diet) served as the positive control. The animals were palpated for mammary tumors 2×/week. At termination of the study, mammary tumors were processed for histological classification. Also, five rats/group had complete necropsies performed. The tissues were examined histologically for pathological lesions as additional toxicological evaluation. Extracts of the liver and mammary gland (5 rats/group) were analyzed by HPLC for retinyl palmitate and/or for the dosed retinoid. Statistical analyses of cancer incidence and latency were determined using logrank analysis, while differences in cancer multiplicity were determined employing the Armitage test.
^b Average number of palpable mammary tumors.
^c Diet supplementation with retinoids was initiated at 52 days of age
and was continued until the study was terminated 180 days after
administration of MNU. Treatment with retinoids is stated in millimoles of
retinoid per kilogram of diet (Wayne meal).
^d Female Sprague-Dawley rats received one i.v. injection of MNU (50
mg/kg of body weight) at 50 days of age.

[16] = Shealy et al., 1997; cited from earlier work
[17] = Expt. 2, 0.5 mmol/kg diet, 90 days
[18] = Expt. 2, 1 mmol/kg diet, 90 days
[19] = Expt. 2, 2 mmol/kg diet, 90 days
[20] = oral gavage in corn oil, 28-29 days

Percent Inhibition of [3H] Retinol Binding (CRBP Assay) [1]: 62 ± 8%
activity in ODC assay [2]: not active in the ODC assay
Compound: COc1ccc(COC/C=C(C)/C=C/C=C(C)/C=C/C2=C(C)CCCC2(C)C)cc1OC [Compound 3a, Retinyl 3,4-Dimethoxybenzyl Ether]
inhibition of papilloma formation (mouse-skin papillomas): ineffective in inhibiting papilloma formation

binding to CRBP, in words ([1]; 150-fold molar excess): good binder to CRBP
Percent Inhibition of [3H] Retinol Binding (CRBP Assay) [1]: 59 ± 13%
stability in weakly acidic ethanol (formation of anhydroretinol, 4) [3]: 4 is isolated
Kp at 24 h [5]: 38 ± 20
activity in ODC assay [2]: not active in the ODC assay
Compound: COc1ccc(OC)c(COC/C=C(C)/C=C/C=C(C)/C=C/C2=C(C)CCCC2(C)C)c1 [Compound 3b, Retinyl 2,5-Dimethoxybenzyl Ether]
inhibition of papilloma formation (mouse-skin papillomas): ineffective in inhibiting papilloma formation
effectiveness compared with RTMBE ([4]; 90-day assays, MNU-induced mammary carcinogenesis): less effective than was RTMBE
reductions in the number of tumors per rat ([4]; 90-day study, 1 and 2 mmol/kg of diet): 26-52%
effectiveness in reducing the number of tumors per rat ([4]; 90 days, in feed): effective
Tumors, % of Control Gp. [4, 17]: 77%
Tumors, Avg. No. per Rat [4, 17]: 2.7
Tumors, % of Control Gp. [4, 18]: 48%
Tumors, Avg. No. per Rat [4, 18]: 1.7
Tumors, % of Control Gp. [4, 19]: 74%
Tumors, Avg. No. per Rat [4, 19]: 2.6

Compound: COC/C=C(C)/C=C/C=C(C)/C=C/C1=C(C)CCCC1(C)C [RME, retinyl methyl ether]
binding to CRBP [6]: bind to cellular retinol-binding protein (CRBP)
toxicity in mammary carcinogenesis study [7]: RME was (at 2 mmol/kg of diet)
toxic dose in the feed after 90 days [7]: > 1 mmole/kg of diet and < 2 mmole/kg of diet
inhibition of binding of tritiated retinol (RBP), relative to retinol [8]: 100%
suppression of 7,12-DMBA-induced mammary cancer ([9]; rats, Grubbs et al, 1977): suppress
suppression of MNU-induced mammary cancer ([9]; rats, 1997): suppress
stability in refluxing ethanol [10]: only minor degradation
Toxic Dose [11, 20]: > 20 mg/kg day and < 40 mg/kg day
toxic dose from body-weight data [11, 20]: < 40 mg/kg/day
accumulation of retinyl palmitate in the liver [12]: a toxic effect produced by efficacious amounts
conversion (demethylation) to retinol or its analogue [13]: demethylated to retinol in rat liver; also recorded: converted, respectively, to retinol or its TMMP analogue; also recorded: demethylation of RME by microsomal oxidases to retinol

Compound: C#CCOC/C=C(C)/C=C/C=C(C)/C=C/C1=C(C)CCCC1(C)C [RPE, retinyl propynyl ether]
inhibition of [3H] retinol-binding (RBP), relative to that of retinol [14]: 70%
toxicity in mammary carcinogenesis study [7]: not toxireas
toxic dose in the feed after 90 days [7]: > 2 mmole/kg of diet
reduction of average number of tumors per rat ([15]; after 90 days, 2 mmol/kg diet (Table 7)): 44%
reduction in the average number of tumors per rat ([15]; by the end of the 180-day study, 2 mmol/kg diet (Table 7)): 16%
% of Control Gp., Day 90 ([15]; with MNU, 0.5 mmol/kg diet): 74%
% of Control Gp., Day 180 ([15]; with MNU, 0.5 mmol/kg diet): 97%
Avg No. Per Rat (palpable mammary tumors), Day 90 ([15]; with MNU, 0.5 mmol/kg diet): 1.7
Avg No. Per Rat (palpable mammary tumors), Day 180 ([15]; with MNU, 0.5 mmol/kg diet): 6.2
% of Control Gp., Day 90 ([15]; with MNU, 2 mmol/kg diet): 56%
% of Control Gp., Day 180 ([15]; with MNU, 2 mmol/kg diet): 84%
Avg No. Per Rat (palpable mammary tumors), Day 90 ([15]; with MNU, 2 mmol/kg diet): 1.3
Avg No. Per Rat (palpable mammary tumors), Day 180 ([15]; with MNU, 2 mmol/kg diet): 5.4
Avg No. Per Rat (palpable mammary tumors), Day 180 ([15]; without MNU, 0.5 mmol/kg diet): 0
Avg No. Per Rat (palpable mammary tumors), Day 180 ([15]; without MNU, 2 mmol/kg diet): 0
recovery from the feed of rats [16]: recoverable from the feed of rats
reduction of average number of tumors per rat ([9]; earlier 90-day study, 2 mmol/kg of diet, MNU, Shealy et al., 1997): 48%
suppression of MNU-induced mammary cancer ([9]; rats, 1997): inhibited the development of MNU-induced mammary cancer; also recorded: more effective than retinyl acetate
stability in refluxing ethanol [10]: intramolecular cyclization
stability in the solid state and in solution ([10]; Shealy et al., 1996, 1997): slowly undergoes an intramolecular Diels-Alder reaction
NOAEL ([11]; mouse, in vivo, po): 43 mg/kg/day
Toxic Dose [11, 20]: > 43 mg/kg day
accumulation in mammary tissue [12]: accumulated in rat mammary tissue
accumulation of retinyl palmitate in the liver [12]: did not cause; also recorded: some increase in retinyl palmitate in the liver
